Data published in patent US20250136997A1, “COMPOSITIONS FOR SEQUESTERING ISOAMYL AMINE AND METHODS OF USE THEREFOR” (University of Louisville Research Foundation, Inc., priority 2023, published 2025).

Legend:
[1] = Single-strand gel shift (SSGS) assay; type: binding; conditions: oligos (2 μM) incubated with IAA (10 μM), 15% PAGE
Method: Single-strand gel shift (SSGS) assay. To identify the metabolite binding site of S100A8, we synthesized a series of oligonucleotides (oligos) (Eurofins Genomics LLC, KY) specific to the response putative IAA binding site at the promoter region of S100A8. The oligos ([…]) were incubated with […] of IAA at 37° C. for 30 minutes following electrophoresis on a 15% native PAGE without SDS in 0.5×TBE buffer. The oligos were stained with ethidium bromide ([…]) and visualized under ultraviolet (UV) light.
Given induction of bacterial metabolite IAA causes the degeneration of microglia by elevation of S100A8 at both the transcription and protein level, we hypothesized that IAA might directly target the promoter of S100A8 and regulate the expression of S100A8. Studying the interaction of metabolites, particularly small molecules, with nucleic acid is challenging due to a lack of appropriate tags for the metabolites. Because of this challenge, we developed a strategy raising the possibility to investigate the interaction of small molecules and nucleic acid.
To test our hypothesis, we first synthesized short single-DNA strains (around 60 mer length each) whose sequences spanned the promoter of S100A8 (FIG. 13A and Table 5). The site and sequence of the promoter and transcription start site (TSS) were determined according to the entire mRNA (Accession #NC_000069.7 (90,576,378 . . . 90,577,341)) and genomic sequence (Accession #L76381) from the NCBI nucleic acid database (FIG. 13A). These DNA oligos (2 μM) were incubated with IAA (10 μM) following native PAGE analysis (FIG. 4A). […] To define the accurate binding site of IAA, we synthesized 10 mer length DNA oligos covering the sequence of S100p1 (Table 5). Unfortunately, the 10 mer length oligo lost the conformational mobility shift in PAGE (FIG. 13C). We then tested the mobility shift with 20 mer oligos. […]

[2] = Surface plasmon resonance (SPR) of biotin-labeled oligos with IAA; type: binding; conditions: biotin labeled oligo on streptavidin sensor chip
Method: Surface plasmon resonance (SPR). To identify the binding activity of the metabolite IAA and S100A8 promoter sequence, SPR experiments were conducted on an OPENSPR™ (Nicoya, Lifesciences, CA). Experiments were performed on a streptavidin sensor (Nicoya, Lifesciences). SPR was run at a flow rate of 20 μl/min using HBS running buffer (20 mM HEPES, 150 mM NaCl, pH 7.4). First, the streptavidin sensor chip was cleaned with octyl β-D-glucopyranoside (40 mM) and CHAPS (20 mM). 200 μl of biotin-conjugated oligos (1 μg/ml, Table 5) were injected on the sensor chip for 10 minutes until a stable resonance was obtained. After immobilization of bio-oligo, the surface was blocked with BSA (3%) in running buffer. After a stable signal was obtained, IAA (10 nM) was run over the immobilized bio-oligo until a stable resonance was obtained. A negative control test was also performed by injecting IAA onto a blank sensor chip to check for non-specific binding. The sensograms were analyzed using TraceDrawer kinetic analysis software.

[3] = HPLC analysis of IAA and CA in serum and cerebrospinal fluid (CSF) of mice; type: in vivo, mouse; conditions: aged mice, intravenous oligo, twice a week for 2 months
[4] = Morris water maze (MWM) test; type: in vivo, mouse; conditions: aged mice, intravenous, twice a week for 2 months
Method: Morris water maze (MWM) test. Mice were trained in a 122 cm diameter, 50 cm height open-field water maze with non-reflective interior surfaces. The pool water was filled with water maintained at 25±1° C. and mixed with non-toxic white tempera paint. Distinctive and extra-maze cues were marked on the wall at specific locations and were visible to the mice in the maze. Mice were removed from cages, placed into the water from quasi-random start points and allowed a maximum of 60 seconds to probe the escape platform. The inter interval of each trail remained for 15 seconds. For four consecutive days, four trials (training) were recorded each day with a final test on day 5 (FIG. 4A). Performance was evaluated by the mean escape latencies base on every training trial (Vorhees and Williams, 2006).

[5] = Interaction of S100p1-G and metabolite: streptavidin pull-down from BV2 cells and LC-MS; type: cell-based, mouse; conditions: cell lysates
Method: Interaction of S100p1-G and metabolite. Microglial BV2 cells (2×10^6) were transfected with biotinylated oligo S100p1-G or mutant using Lipofectamin RNAiMAX Reagent (Thermo Fisher) according to the manufacturer's instructions overnight at 37° C. […] of aged mouse fecal supernatant (from one-gram feces) was added into the cell growth medium. After six hours, the cells were collected in RIPA lysis buffer. […] of cell lysate was incubated with […] of DYNABEADS® Streptavidin beads (Thermo Fisher) at room temperature for 1 h. The bio-oligo complex was eluted with biotin (4 mg/ml)) in 25 mM Tris-HCL containing 0.3 M NaCl (PH 8.5) at 95° C. for 5 minutes. Metabolite analysis was performed with LC-MS.

microglial cells [6] = assay: Western blot of cleaved caspase-3 and cleaved PARP in ex vivo cultured microglial cells; type: cell-based, mouse
Method: Isolation of microglia, neuron, astrocytes, and oligodendrocytes from the brain. Mice were anaesthetized with a mixture of ketamine (16%) and xylazine (3%) by intraperitoneal injection and then sacrificed under basal conditions by transcardial perfusion with perfusion buffer (Ca^2+/Mg^2+ free HBSS containing 0.5 mM EGTA, 10 mM HEPES and 4.2 mM NaHCO3; pH 7.2). The perfused brain was removed and gently mechanically disaggregated with tweezers in dissociation buffer (HBSS containing 10 mM HEPES and 4.2 mM NaHCO3 supplemented with Type I collagenase (0.05%), Dispase II (25 mg/ml), DNase I (2.5 mg/ml), trypsin inhibitor ([…]); pH 7.5) followed by incubation at 37° C. for 1 hour. The tissue homogenate was centrifuged at 1,350×g for 5 minutes at 4° C. For the isolation of microglia, the digestion enzymes in the tissue homogenate were inactivated by addition of PBS/EDTA containing 5% fetal bovine serum (FBS) and the digested brain bits were triturated gently, passed over a 100 µm filter (Fisher Scientific) and centrifuged. […] The pellet of cells was rinsed in PBS. Any contaminating red blood cells (RBC) were lysed using RBC lysis buffer (Sigma) according to the manufacturer's instructions, rinsed twice with PBS and passed through a 40 µm filter (Fisher Scientific). Cells were then stained for CD11b and CD45 for flow cytometry analysis. The astrocytes were isolated from mouse cortices (n=10). The tissue homogenate was centrifuged at 800×g for 10 minutes at 4° C. following digestion with type II collagenase (1 mg/ml) and type I DNase (10 U/ml) in DMEM for 10 minutes. The cells pelleted by centrifugation were plated in a 100 mm culture dish coated with poly-L-ornithine (Sigma). For the isolation of oligodendrocytes, the glial cells above were cultured in specific media containing T3 and T4 (0.5 mM) as well as platelet-derived growth factor (PDGF, 10 ng/ml) to promote the growth of the different cell types. Isolated glial cells were labelled with the following antibodies against surface markers: CD11b (Biolegend, Cat #101206), CD45 (Biolegend, Cat #147710), GFAP (Biolegend, Cat #837508) and MOG (Biorbyt, Cat #orb412341-FITC). Cells positive for CD11b and CD45Med were identified as microglia. Cells positive for GFAP and negative for CD45 and CD11b were identified as astrocytes. Cells sorted with MOG+CD11b− were identified as oligodendrocytes. Neurons were isolated from mouse brain using the Pierce Primary Neuron Isolation Kit (Thermo Scientific, Cat #88280). Briefly, the tissue homogenate from freshly dissected cortexes was suspended in an equal volume of ice cold HBSS (Sigma) and replaced with Neuronal Isolation Enzyme (with papain) in a 37° C. incubator for 30 minutes. After washing with HBSS, the tissue was cultured in a poly-D-lysine coated plate with Neuronal Culture Medium.
Western blotting. Cells were treated as indicated in individual Figure legends and whole cell extracts (WCE) were prepared in the radioimmunoprecipitation assay (RIPA) buffer (Sigma) with addition of protease and phosphatase inhibitors (Roche). Proteins were separated by 10% SDS-PAGE and transferred to polyvinylidene difluoride (PVDF) membranes (Bio-Rad Laboratories, Inc., Hercules, CA). Dual color precision protein MW markers (BioRad) were separated in parallel. Antibodies were purchased as follows: cleaved-caspase-3 (ab214430), cleaved PARP (ab203467) and GAPDH (ab9657, Abcam) from Abcam; S100A8 (47310) and S100a9 (72590) from Cell Signaling; and Ltf (GTX81085) from GeneTex. The secondary antibodies conjugated to Fluors Alex-488 (A32723) or Alex-594 (A11012) were purchased from Invitrogen (Eugene, OR). The bands were visualized on the Odyssey Imager (LiCor Inc, Lincoln, NE).

microglial cells [7] = assay: FACS analysis of apoptotic bodies (ABs) in supernatants of cultured microglial cells; type: cell-based, mouse; conditions: microglial cells isolated from young mice
Method: Flow cytometry. Isolated cells were incubated with blocking solution (0.5% BSA/PBS) for 15 minutes at 4° C. For surface staining, cells were stained with various antibodies at room temperature for 1 hour and then washed with PBS. Washed cells were stained for 40 minutes at 4° C. with the appropriate fluorochrome-conjugated antibodies in PBS with 2% FBS. Data were acquired using a BD FACSCalibur flow cytometer (BD Biosciences, San Jose, CA) and analyzed using FlowJo software (Tree Star Inc., Ashland, OR). The following antibodies purchased from Biolegend were used for flow cytometry: anti-CD11b (101208), anti-CD45 (103112) and FITC Annexin V (640945). For the ABs analysis, extracellular vesicles were collected. To recognize the ABs, as described previously, size gates set based on forward scatter (FSC) were applied in combination with Annexin V staining. From these vesicles total ABs were detected using Annexin V staining events.
Isolation of apoptotic bodies. Apoptotic bodies (ABs) were isolated from culture supernatants as previously described. Briefly, cell culture medium was harvested and cells were removed by pelleting at 335×g for 10 minutes. To remove cell-debris, supernatants were centrifuged at 1,000×g for 10 minutes, followed by another centrifugation at 2,000×g for 30 minutes to pellet ABs. Pelleted ABs were resuspended and washed with PBS.

[8] = added to ex vivo cultured microglial cells from young mice

S100p1: CTGTGGGCAG CTGGCAAGC TTTCCTCTATAAAAGCAGCTGACACTTAGCCTCACAT (SEQ ID NO: 7), −57 . . . −1 (DNA CTGTGGGCAGCTGGCCAAGCTTTCCTCTATAAAAGCAGCTGACACTTAGCCTCACAT; DNA, backbone and methylation of C not given here; further chemistry not fully specified)
mobility shift on native PAGE after incubation with IAA [1]: mobility shifted
interaction with IAA (SPR) [2]: targeted by IAA

S100p1-G-Mut: CTGTATGCAA TTGGCCAAGC (SEQ ID NO: 9), mutant control oligo (DNA CTGTATGCAATTGGCCAAGC; DNA, backbone and methylation of C not given here; further chemistry not fully specified)
IAA in CSF (HPLC) [3]: not seen
memory and spatial learning (MWM) [4]: not seen

hS100A8p: AGCTGTGGGCAGCTGGCCAAGCCTAA (SEQ ID NO: 39), human S100A8 promoter oligo (DNA, backbone and methylation of C not given here; further chemistry not fully specified)
mobility shift on native PAGE after incubation with IAA [1]: binds

NCCCC(=O)O [GABA]
metabolite within the Bio-S100p1-G complex (LC-MS) [5]: did not find

C/C=C/C(=O)O [CA, crotonic acid]
effect on the microglia (cleaved caspase-3) (microglial cells [6]; S100A8 deficient microglia cells): abolished
cleaved caspase-3 (microglial cells [6]; [8]): increasing
cleaved poly(-ADP-ribose) polymerase (PARP) (microglial cells [6]; [8]): increasing
ABs released into the culture supernatants (microglial cells [7]): increase

NCCCC[C@H](N)C(=O)O [lysine]
metabolite within the Bio-S100p1-G complex (LC-MS) [5]: did not find
